Test results from US11142515B2, “Pyrazolyl-ureas as kinase inhibitors” (RESPIVERT LIMITED, priority 2014, dated 2021).

How the values were obtained:
p38MAPKγ (MAPK12) = biological target: T1, p38MAPKγ (MAPK12) (Homo sapiens, UniProt P53778); assay: p38 MAPKγ enzyme inhibition (Z-LYTE FRET); format: biochemical; conditions: Table 2A; read-out: IC50 Values for Enzyme Inhibition p38 MAPKγ
T1 construct: purchased Life Technologies
T1 sequence (P53778 1-367): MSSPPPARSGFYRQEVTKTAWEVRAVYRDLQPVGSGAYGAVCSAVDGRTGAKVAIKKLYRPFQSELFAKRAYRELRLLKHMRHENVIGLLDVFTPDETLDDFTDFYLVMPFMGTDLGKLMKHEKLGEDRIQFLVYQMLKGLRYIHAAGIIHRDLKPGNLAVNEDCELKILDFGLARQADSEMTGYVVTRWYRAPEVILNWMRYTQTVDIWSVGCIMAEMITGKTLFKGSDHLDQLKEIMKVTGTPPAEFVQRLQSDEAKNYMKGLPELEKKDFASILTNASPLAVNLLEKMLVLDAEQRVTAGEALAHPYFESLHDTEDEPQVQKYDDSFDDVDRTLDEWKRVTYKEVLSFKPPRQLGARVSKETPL
Method in brief: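 Z-LYTE read-out: after 1 h protease development, only non-phosphorylated peptide is cleaved, and the donor/acceptor (coumarin/fluorescein) ratio reports phosphorylation. Beforehand, enzyme and compound (stock concentrations 0.0012–40 μg/mL) were preincubated 2 h at RT, then the kinase reaction ran 1 h at RT with peptide and ATP (8 μM and 400 μM stocks).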

c-Src = biological target: T2, c-Src (Homo sapiens, UniProt P12931); assay: c-Src enzyme inhibition (Z-LYTE FRET); format: biochemical; conditions: Table 2A
T2 construct: purchased Life Technologies
T2 sequence (P12931 whole entry): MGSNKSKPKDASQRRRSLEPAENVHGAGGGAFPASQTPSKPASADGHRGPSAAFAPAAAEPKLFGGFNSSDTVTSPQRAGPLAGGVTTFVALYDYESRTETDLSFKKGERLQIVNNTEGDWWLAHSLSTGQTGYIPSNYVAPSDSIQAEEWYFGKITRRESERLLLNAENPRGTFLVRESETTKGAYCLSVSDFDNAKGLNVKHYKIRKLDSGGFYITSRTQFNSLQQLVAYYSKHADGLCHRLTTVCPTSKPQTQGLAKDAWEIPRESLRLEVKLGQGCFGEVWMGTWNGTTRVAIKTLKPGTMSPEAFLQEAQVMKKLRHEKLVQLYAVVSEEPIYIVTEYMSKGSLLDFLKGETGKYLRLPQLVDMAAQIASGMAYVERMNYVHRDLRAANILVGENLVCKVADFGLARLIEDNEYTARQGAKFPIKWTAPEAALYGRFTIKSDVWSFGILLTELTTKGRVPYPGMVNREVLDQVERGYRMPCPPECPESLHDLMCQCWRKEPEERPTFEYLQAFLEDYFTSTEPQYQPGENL
Experimental: The enzyme inhibitory activities of compounds disclosed herein were determined by FRET using synthetic peptides labelled with both donor and acceptor fluorophores (Z-LYTE, Life Technologies, Paisley, UK).
The relevant enzyme (1000 ng/mL, 1400 ng/mL or 2000 ng/mL respectively, 2.5 μL) was incubated with the test compound (either 40 μg/mL, 12 μg/mL, 4 μg/mL, 1.2 μg/mL, 0.4 μg/mL, 0.12 μg/mL, 0.04 μg/mL, 0.012 μg/mL, 0.004 μg/mL or 0.0012 μg/mL, 2.5 μL each) for 2 h at RT. The FRET peptides (8 μM, 2.5 μL), and appropriate ATP solutions (2.5 μL, 800 μM for c-Src, and 60 μM ATP for HCK and Syk) were then added to the enzyme/compound mixtures and incubated for 1 h at RT. Development reagent (protease, 5 μL) was added for 1 h prior to detection in a fluorescence microplate reader (EnVision, Perkin Elmer).
In all cases, the site-specific protease cleaves non-phosphorylated peptide only and eliminates the FRET signal. Phosphorylation levels of each reaction were calculated using the ratio of coumarin emission (donor) over fluorescein emission (acceptor), for which low ratios indicate high phosphorylation and high ratios indicate low phosphorylation levels.

d-U937 cells = assay: Cell viability: MTT assay in differentiated U937 cells; format: cell-based, human; conditions: 10 μg/mL
Method in brief: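 Differentiated U937 cells exposed to compound at a final 10 μg/mL, either 4 h in 5% FCS RPMI1640 or 24 h in 10% FCS RPMI1640. MTT added for 1 h, formazan dissolved in DMSO, absorbance read at 550 nm; % viability loss relative to 0.5% DMSO vehicle, with increases shown as negative values.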

[1] = biological target: T3, p38 MAPKα isoform (MAPK14) (Homo sapiens, UniProt Q16539); assay: p38 MAPKα enzyme inhibition (Z-LYTE FRET); format: biochemical; conditions: Table 2A; read-out: IC50 Values for Enzyme Inhibition p38 MAPKα
T3 construct: purchased Life Technologies
T3 sequence (Q16539 whole entry, canonical isoform): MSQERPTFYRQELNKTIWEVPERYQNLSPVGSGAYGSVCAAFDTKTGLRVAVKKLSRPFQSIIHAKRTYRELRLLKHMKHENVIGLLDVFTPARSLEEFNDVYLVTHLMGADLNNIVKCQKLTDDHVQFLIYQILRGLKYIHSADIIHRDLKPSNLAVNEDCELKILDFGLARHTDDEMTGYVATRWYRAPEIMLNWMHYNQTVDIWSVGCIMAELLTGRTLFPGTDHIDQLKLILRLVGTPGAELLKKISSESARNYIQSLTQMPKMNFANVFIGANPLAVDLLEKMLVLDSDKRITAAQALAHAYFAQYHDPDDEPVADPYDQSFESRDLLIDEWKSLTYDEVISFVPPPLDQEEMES
Method in brief: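 Recombinant human MAPK14 (40 ng/mL stock) was preincubated 2 h at RT with compound (stock dilutions 0.0012-40 μg/mL). The Z-LYTE FRET read-out used a MAPKAP-K2-derived peptide, and protease development for 1 h cleaved only non-phosphorylated peptide. Phosphorylation was calculated from the coumarin/fluorescein emission ratio.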

GSK 3α enzyme isoform = biological target: T4, GSK 3α enzyme isoform (Homo sapiens, UniProt P49840); assay: GSK 3α enzyme inhibition (Z-LYTE FRET); format: biochemical; conditions: for IC50: Table 2A, read-out: IC50 Values for Enzyme Inhibition GSK3α
T4 construct: purchased Life Technologies
T4 sequence (P49840 whole entry, canonical isoform): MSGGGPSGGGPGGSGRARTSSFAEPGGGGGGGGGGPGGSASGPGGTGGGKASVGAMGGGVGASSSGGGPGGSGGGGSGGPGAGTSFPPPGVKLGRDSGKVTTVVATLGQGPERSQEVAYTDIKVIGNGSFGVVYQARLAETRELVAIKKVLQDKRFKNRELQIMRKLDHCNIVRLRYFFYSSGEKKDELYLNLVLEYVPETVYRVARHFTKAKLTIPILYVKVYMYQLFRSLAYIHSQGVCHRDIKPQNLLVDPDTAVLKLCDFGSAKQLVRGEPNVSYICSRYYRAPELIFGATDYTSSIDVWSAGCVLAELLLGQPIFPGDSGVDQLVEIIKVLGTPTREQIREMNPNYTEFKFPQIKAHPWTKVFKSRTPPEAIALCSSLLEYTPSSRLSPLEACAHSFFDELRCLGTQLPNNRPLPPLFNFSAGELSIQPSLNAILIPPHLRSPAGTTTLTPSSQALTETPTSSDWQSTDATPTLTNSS
Method in brief: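 Z-LYTE FRET kinase assay: GSK3α protein (500 ng/mL stock) preincubated with compound (0.0012–40 μg/mL stocks) for 2 h at RT. FRET peptide (8 μM stock) and ATP (40 μM stock) added for 1 h at RT, then protease development for 1 h. Phosphorylation taken from the coumarin/fluorescein emission ratio.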

Syk = biological target: T5, Syk (Homo sapiens, UniProt P43405); assay: Syk enzyme inhibition (Z-LYTE FRET); format: biochemical; conditions: for IC50: Table 2A
T5 construct: purchased Life Technologies
Method in brief: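 Enzyme (1000, 1400 or 2000 ng/mL stocks for c-Src, Hck, Syk respectively) preincubated 2 h at RT with compound (0.0012–40 μg/mL series), then FRET peptide plus ATP (800 μM c-Src; 60 μM Hck, Syk stocks) for 1 h. Protease development 1 h; phosphorylation from coumarin/fluorescein emission ratio.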

Structure (SMILES)	IC50 (p38MAPKγ (MAPK12)) [µM]	IC50 (c-Src) [µM]	MTT Assay Cell viability at time point indicated in d-U937 Cells, 4 h (d-U937 cells)	MTT Assay Cell viability at time point indicated in d-U937 Cells, 24 h (d-U937 cells)	IC50 [1] [µM]	IC50 (GSK 3α enzyme isoform) [µM]	IC50 (Syk) [µM]	inhibitory activity against GSK3a (in words) (GSK 3α enzyme isoform)	inhibitory activity against Syk (in words) (Syk)
Cc1ccc(-n2nc(C(C)(C)C)cc2NC(=O)Nc2ccc(OCc3ccnc(Nc4cnc(C(=O)N(C)C)cn4)c3)c3ccccc23)cc1 [Example 9, 5-((4-(((4-(3-(3-(tert-Butyl)-1-(p-tolyl)-1H-pyrazol-5-yl)ureido)naphthalen-1-yl)oxy)methyl)pyridin-2-yl)amino)-N,N-dimethylpyrazine-2-carboxamide]	9.24	2.51	− (−ve and +ve indicate the value is below and above, respectively, the no significant effect threshold defined as 30% inhibition at 10 μg/mL at the time point indicated)	− (−ve and +ve indicate the value is below and above, respectively, the no significant effect threshold defined as 30% inhibition at 10 μg/mL at the time point indicated)	0.134	3.32	> 14.9		
Cc1cccc(-n2nc(C(C)(C)C)cc2NC(=O)Nc2ccc(OCc3ccnc(Nc4cnccn4)c3)c3ccccc23)c1 [Example 40]	0.079	0.085	− (−ve and +ve indicate the value is below and above, respectively, the no significant effect threshold defined as 30% inhibition at 10 μg/mL at the time point indicated)	− (−ve and +ve indicate the value is below and above, respectively, the no significant effect threshold defined as 30% inhibition at 10 μg/mL at the time point indicated)	0.011	8.78	> 16.7		
Cc1ccc(-n2nc(C(C)(C)C)cc2NC(=O)Nc2ccc(OCc3ccnc(Nc4cnc(C)cn4)c3)c3ccccc23)cc1 [Example 19]	0.229	0.151	− (−ve and +ve indicate the value is below and above, respectively, the no significant effect threshold defined as 30% inhibition at 10 μg/mL at the time point indicated)	− (−ve and +ve indicate the value is below and above, respectively, the no significant effect threshold defined as 30% inhibition at 10 μg/mL at the time point indicated)	0.013	> 16.3	> 16.3		
Cc1ccc(-n2nc(C(C)(C)C)cc2NC(=O)Nc2ccc(OCc3ccnc(Nc4cncc(N(C)C)n4)c3)c3ccccc23)cc1 [Example 14]	0.237	0.029	− (−ve and +ve indicate the value is below and above, respectively, the no significant effect threshold defined as 30% inhibition at 10 μg/mL at the time point indicated)	− (−ve and +ve indicate the value is below and above, respectively, the no significant effect threshold defined as 30% inhibition at 10 μg/mL at the time point indicated)	0.012	3.37	> 15.6		
Cc1ccc(-n2nc(C(C)(C)C)cc2NC(=O)Nc2ccc(OCc3ccnc(Nc4cnccn4)c3)c3ccccc23)cc1 [Example 1, 1-(3-(tert-Butyl)-1-(p-tolyl)-1H-pyrazol-5-yl)-3-(4-((2-(pyrazin-2-ylamino)pyridin-4-yl)methoxy)naphthalen-1-yl)urea]	0.067	0.098	− (−ve and +ve indicate the value is below and above, respectively, the no significant effect threshold defined as 30% inhibition at 10 μg/mL at the time point indicated)	− (−ve and +ve indicate the value is below and above, respectively, the no significant effect threshold defined as 30% inhibition at 10 μg/mL at the time point indicated)	0.025	> 16.7	> 16.7	very much weaker than the Reference Compound	very much weaker than the Reference Compound
Cc1ccc(-n2nc(C(C)(C)C)cc2NC(=O)Nc2ccc(OCc3ccnc(Nc4cncc(CC(N)=O)n4)c3)c3ccccc23)cc1 [Example 32]	0.037	0.025	− (−ve and +ve indicate the value is below and above, respectively, the no significant effect threshold defined as 30% inhibition at 10 μg/mL at the time point indicated)	− (−ve and +ve indicate the value is below and above, respectively, the no significant effect threshold defined as 30% inhibition at 10 μg/mL at the time point indicated)	0.003	1.32	> 15.2		
Cc1ccc(-n2nc(C(C)(C)C)cc2NC(=O)Nc2ccc(OCc3ccnc(Nc4cnc(CO)cn4)c3)c3ccccc23)s1 [Example 26]	0.074	0.056	− (−ve and +ve indicate the value is below and above, respectively, the no significant effect threshold defined as 30% inhibition at 10 μg/mL at the time point indicated)	+ (−ve and +ve indicate the value is below and above, respectively, the no significant effect threshold defined as 30% inhibition at 10 μg/mL at the time point indicated)	0.007	0.469	1.58		
CNC(=O)Cc1cncc(Nc2cc(COc3ccc(NC(=O)Nc4cc(C(C)(C)C)nn4-c4ccc(C)cc4)c4ccccc34)ccn2)n1 [Example 28]	0.106	0.032	− (−ve and +ve indicate the value is below and above, respectively, the no significant effect threshold defined as 30% inhibition at 10 μg/mL at the time point indicated)	+ (−ve and +ve indicate the value is below and above, respectively, the no significant effect threshold defined as 30% inhibition at 10 μg/mL at the time point indicated)	0.005	5.17	> 14.9		
CC(C)(C)c1cc(NC(=O)Nc2ccc(OCc3ccnc(Nc4cncc(C5CC5)n4)c3)c3ccccc23)n(-c2ccc(CO)cc2)n1 [Example 25]	0.049	0.01	− (−ve and +ve indicate the value is below and above, respectively, the no significant effect threshold defined as 30% inhibition at 10 μg/mL at the time point indicated)	+ (−ve and +ve indicate the value is below and above, respectively, the no significant effect threshold defined as 30% inhibition at 10 μg/mL at the time point indicated)	0.007	0.523	2.22		
Cc1ccc(-n2nc(C(C)(C)C)cc2NC(=O)Nc2ccc(OCc3ccnc(Nc4cnc(C(=O)NCCN5CCOCC5)cn4)c3)c3ccccc23)cc1 [Example 17]	0.074	0.034	− (−ve and +ve indicate the value is below and above, respectively, the no significant effect threshold defined as 30% inhibition at 10 μg/mL at the time point indicated)	− (−ve and +ve indicate the value is below and above, respectively, the no significant effect threshold defined as 30% inhibition at 10 μg/mL at the time point indicated)	0.008	2.82	> 13.2		
